According to paper PMC5610309, “In vivo target exploration of apidaecin based on Acquired Resistance induced by Gene Overexpression (ARGO assay)” (Scientific Reports, 2017):
Where no end group is shown, it is not given here. [ ]: non-standard residue; d: D form.

Tests used:
[1] = system: enoyl-ACP reductase (FabI); assay: ARGO assay, positive control, FabI-overexpressing E. coli; format: cell-based, Escherichia coli; details: 250 nM triclosan; increasing IPTG (Fig. S2)
Procedure: IPTG Concentration / μM IPTG Concentartion / μM
Figure S2. Acquired resistance assay induced by overexpression of target proteins. A:
concentration. Black line: no triclosan (OD Tc(-)). Gray line: 250 nM triclosan (OD Tc(+)).
overexpression. […] Black line: no
trimethoprim. Gray line: 125 μM trimethoprim. D: The degree of resistance against

[2] = system: dihydrofolate reductase (FolA); details: 125 μM trimethoprim; increasing IPTG (Fig. S2)
Procedure: (§4) The recombinant E. coli strain JM109 harboring pCA24N derivatives were grown on 2 mL LB medium containing 30 µg/mL chloramphenicol in a test tube, with reciprocal shaking at 175 rpm at 37 °C for 18 h. A total of 80 μL culture medium was transferred into fresh 2 mL LB medium containing 30 µg/mL chloramphenicol and different concentrations of IPTG (see Supplementary Information for detail), and further incubated at 37 °C with until the OD at 600 nm reached 0.4. The pre-culture was diluted 10^5 times with PB medium containing 30 µg/mL chloramphenicol so that the initial cell density was approximately 1000 colony forming units/mL. Then a 50 µL aliquot was combined with a 50 µL mixture of apidaecin and IPTG (final concentration of apidaecin was 6.25 µM). As a control, 50 µL IPTG and 50 µL sterilized water were added, respectively. The cells were cultivated in 96-well plates using a microplate shaker (BioShaker M-BR-024 Taitec, Shizuoka, Japan) with shaking at 1200 rpm at 30 °C for 18 h. […] Cell growth in a 96-well plate was optically measured using a microplate reader (iMark Microplate Absorbance Reader, Bio-rad) at a wavelength of 595 nm. The degree of resistance against apidaecin was defined as the OD obtained with the addition of IPTG and apidaecin divided by the OD with the addition of IPTG only.1 Degreeofresistance=ODwithapidaecinandIPTG/ODwithIPTG […]

PrfB = assay: ARGO assay, apidaecin resistance of PrfB-overexpressing E. coli (ASKA clone); format: cell-based, Escherichia coli; details: 6.25 μM apidaecin; E. coli JM109 ASKA clone, IPTG-induced; 30 °C, 18 h; OD595
Procedure: as §4

[3] = system: lacZ reporter gene expression in E. coli MG1655; assay: Inhibition assay of LacZ expression (X-gal chromogenesis); format: cell-based, Escherichia coli; details: 500 μM; E. coli treated 1 h, then IPTG; ΔOD595 with and without X-gal; three trials
Procedure: (§1) The 96-well plate culture was started as well as Procedure B with a modification that the cells were resuspended in 1 mL PB medium containing 100 μg/ml 5-bromo-4-chloro-3-indolyl-β-D-galactopyranoside (X-gal). After 60 min, 0.1 mM IPTG was added and the plate was further incubated for 120 min. The OD of the culture in the test tube was measured using a UV-VIS spectrophotometer (Genesys20, Thermo Scientific, Waltham, MA, USA) at 600 nm, and OD in the 96-well plate was monitored at 595 nm using an iMark Microplate Absorbance Reader (Biorad, Hercules, CA, USA).
E. coli MG1655 cells were cultivated using Procedure D. The activity of LacZ was estimated based on the subtraction of ODs at 595 nm obtained with and without supplement of X-gal.

[4] = system: lacZ expression in PURE system (PrfA-dependent termination); assay: Inhibitory assay using the in vitro transcription-translation system (PURE system); format: biochemical; details: 200 μM apidaecin; for inhibition ratio of lacZ (UAG) expression: PrfB omitted, 37 °C, 3 h, immunoblot
Procedure: The PCR products were purified by agarose gel extraction and used for second PCR to add the T7 promoter sequence using a forward primer 2, […], and aforementioned reverse primers. The amplified DNA was treated with chloroform/phenol/isoamyl alcohol, concentrated by ethanol precipitation, and diluted to 100 ng/μl using RNase free water. The DNA solution was used for in vitro transcription-translation reaction using PUREfrex ver 1.0 (GeneFrontier Corp., Chiba, Japan). The solution I, II, and III provided by the kit protocol was combined with the apidaecin solution to contain 0 to 200 μM apidaecin. […] Ten microliter solution I, 1 μL solution II, 1 μL solution III, 0.1 μL 6 μM T7 RNA polymerase, 0.5 μL 4 or 0.8 μM RF1, 0.5 μL 4 μM RF3, 0.5 μL 40 μM RRF, and 0–4 μL 1 mM apidaecin were combined and diluted to 19 μL with RNAse free water. The mixture was incubated at room temperature for 15 min, and 1 μL template DNA (LacZ [UAG]) was added. Then the mixture was further incubated at 37 °C from 3 h. Then 1 μL reaction mixture was used for immnoblot analysis.

[5] = system: lacZ expression in MG1655(lacZ-UAA), MG1655(lacZ-UGA), MG1655(lacZ-UAG); assay: In vivo inhibitory assay of lacZ expression with different stop codons (immunoblot); format: cell-based, Escherichia coli; details: 250 and 500 μM apidaecin
Procedure: (§2) The E. coli strain MG1655 from Procedure C were harvested and suspended in lysis buffer containing 50 mM sodium phosphate (pH 7.0), 10 mM imidazol, and 300 mM NaCl. The OD was normalized using lysis buffer, after which the crude extract was prepared using sonication on ice 5 s × 5 times. Anti-β-galactosidase antibody (Biotin) ab6645 was purchased from abcam (Cambridge, UK) and used at a 10^5-fold dilution. Immun-Star Goat Anti-Rabbit (GAR)-HRP Conjugate (Biorad) was used as the secondary antibody. Bands were detected using the ECL Select Western Blotting Detection Reagent (GE Healthcare, Little Chalfont, UK) and were recorded on ChemiDox XRS (Biorad). Band density was quantified using ImageJ software.
The C-terminal region of the lacZ gene in E. coli chromosomal DNA was replaced with three DNA fragments containing three stop codons (Fig. S4). The DNA fragments including a flippase recognition target (FRT) cassette with a kanamycin-resistant gene, and the C-terminal sequence of the lacZ gene with three stop codons, were amplified from pKD13 using three forward primers: […], […], and […] (stop codons are underlined), and a reverse primer: […]. The template DNA in the PCR products was removed by DpnI treatment. […] Ampicilline-sensitive colonies were chosen and recombination in their chromosomal DNA was evaluated by colony PCR and sequencing. […]

[6] = system: β-galactosidase protein synthesis in E. coli MG1655; assay: Immunoblot analysis of native LacZ; format: cell-based, Escherichia coli; details: 500 μM and 0.1 mM IPTG
Procedure: (§3) The 96-well plate culture was started following Procedure B. After 60 min, 0.1 mM IPTG was added and the plate was incubated for an additional 60 min.
as §2

[7] = system: peptide chain release factor 1 (PrfA); assay: ARGO assay, apidaecin resistance of PrfA-overexpressing E. coli (ASKA clone); format: cell-based, Escherichia coli; details: 6.25 μM apidaecin; E. coli JM109 ASKA clone, IPTG-induced; 30 °C, 18 h; OD595; three trials
Procedure: as §4

[8] = system: lacZ mRNA transcription in E. coli MG1655; assay: Quantification of lacZ mRNA by real-time reverse transcriptase-PCR; format: cell-based, Escherichia coli; details: 500 μM and 0.1 mM IPTG; quantitative real-time PCR
Procedure: as §3
The E. coli strain MG1655 from Procedure C were harvested by centrifugation at 4 °C, and total RNA was extracted using Isogen (Nippongene, Toyama, Japan) according to the manufacturer’s instructions. The reverse transcriptase reaction was performed using PrimeScript RT-PCR Kit (Takara, Tokyo, Japan) based on the provided protocol. The lacZ fragment was amplified using a pair of primers: lacZ_RTf1, […] and lacZ_RTr1, with […] used as the standard. The standard curve was made in the range of 10^−3 to 10^−7 ng DNA/μL. A total of 6 μL reverse transcriptase reaction product was combined with 10 μL TaqMan Gene Expression Master Mix (Applied Biosystems, Foster City, CA, USA), 1 μL lacZ_RTf1, 1 μL lacZ_RTr1, and 2 μL TaqMan probe lacZ_2116, […], which was bound to fluorescein as a reporter and NFQ-MGB as a quencher. The samples were prepared in triplicate and transferred to a MicroAmp Fast Optical 48-well Reaction Plate (Applied Biosystems) and sealed with a MicroAmp Optical 48-well Adhesive Film. The plate was centrifuged at 1,970 g for 10 min at 4 °C. Real-time PCR (qPCR) was performed using the StepOne real-time PCR system (Applied Biosystems). […]

E. coli [9] = assay: Growth of E. coli in 96-well plate culture with antimicrobial agent; format: cell-based, Escherichia coli; details: 500 μM
Procedure: E. coli were grown on 2 mL LB medium in a test tube containing 10 g/L trypton, 5 g/L Bacto yeast extract, and 10 g/L sodium chloride, with reciprocal shaking at 175 rpm at 30 °C for 14 h. A total of 20 μL culture medium was transferred into 2 mL fresh LB medium and incubated at 30 °C until the OD at 600 nm reached 0.2.
The cells from Procedure A were washed with 2 mL PB medium containing 10 g/L trypton and 9 g/L sodium chloride, and re-suspended in 1 mL PB medium. A total of 80 μL medium was combined with 20 μL antimicrobial agents, followed by incubation in a 96-well plate at 30 °C for 4 h with shaking at 1200 rpm.
as §1

E. coli [10] = details: relative to wild type apidaecin Ho +; cited from earlier work

Oc1cc(Cl)ccc1Oc1ccc(Cl)cc1Cl [triclosan]
sensitivity of E. coli upon overexpression of FabI [1]: reduced the sensitivity

COc1cc(Cc2cnc(N)nc2N)cc(OC)c1OC [trimethoprim]
sensitivity of E. coli upon overexpression of FolA [2]: reduced the sensitivity

GNNRPVYIPQPRPPHPRL [apidaecin, Apidaecin Ib, proline-rich AMP isolated from the hemolymph of honeybees; purchased from Bex Corp]
cell growth in the presence of apidaecin upon PrfB overexpression (PrfB): did not promote cell growth
inhibition of β-galactosidase-mediated chromogenesis [3]: almost completely inhibited
inhibition efficiency of lacZ expression by stop codon ([4]; lacZ-UAA, lacZ-UGA, lacZ-UAG templates, UAG stop codon): most efficient inhibition
inhibition ratio of lacZ (UAG) expression ([4]; low PrfA concentration (20 nM PrfA)): 45%
inhibition ratio of lacZ (UAG) expression ([4]; standard PrfA concentration (100 nM PrfA)): 21%
expression levels of whole proteins ([5]; SDS-PAGE, all three stop codon constructs): decreased expression levels of whole proteins
degree of inhibition of lacZ expression, UAG stop codon versus other constructs ([5]; immunoblot anti-LacZ, UAG recognized only by PrfA): considerably stronger inhibition
β-galactosidase protein synthesis [6]: considerably diminished
degree of resistance against apidaecin upon PrfA overexpression (OD with apidaecin and IPTG / OD with IPTG) [7]: up to 80%
influence on lacZ mRNA transcription [8]: no significant influence
inhibition of cell growth (E. coli [9]; PB medium, 96-well plate, 30 °C, OD595, three trials): almost completely inhibited

L17D-L mutant of apidaecin Ho + (GKPRPQQVPPRPPHPR[dL])
antibacterial activity toward E. coli compared to wild type peptide (E. coli [10]): 0.1 fold

L18dL apidaecin 1b
antimicrobial effect against E. coli (E. coli [9]; data not shown): no antimicrobial effect
